Source: patent US11236053B2, “NADPH oxidase inhibitors and uses thereof” (Emory University, priority 2017, dated 2022)

Key:
[1] = Superoxide scavenging assay (xanthine/xanthine oxidase, cytochrome C); assay type: biochemical; settings: in vitro, concentrations up to 100 μM, superoxide from xanthine/xanthine oxidase
Description: (§1) ROS scavenging by sulfonylurea compound 23, 24, or 25 was assessed in vitro. Superoxide was generated with xanthine/xanthine oxidase and measured using the cytochrome C assay. In addition, 5 μM hydrogen peroxide was added exogenously and measured using the Amplex Red™ assay. ROS were measured in the presence of indicated concentrations of each compound or DMSO solvent. Bars represent means±SEM of 4 (superoxide) or 3 (hydrogen peroxide) independent experiments. Differences between DMSO and sulfonylurea compounds are not significant.
(§2) To assess ROS scavenging, the consumption of superoxide, generated by xanthine/xanthine oxidase, or of exogenous hydrogen peroxide, was measured by increasing concentrations of the compounds of interest.
An assay was developed based on the measurement of superoxide-dependent changes in cytochrome C absorbance at 550 nm. Briefly, superoxide was generated in vitro in phosphate buffered saline solution, using hypoxanthine (100 μM)/xanthine oxidase (6×10^3 U/mL) in the presence of catalase (200 U/mL) to eliminate H2O2. Compounds under study were added at various concentrations (1-100 μM) and remaining superoxide was measured with cytochrome C (46 μM). Superoxide dismutase (575 U/mL) was used as a positive control in separate samples measured at the same time. Following a 1 min stabilization period, absorbance was measured at 550 nm in a microplate reader (Biotek), using a kinetic program (1 read/min) for 15 min. The linear slope representing the rate of superoxide production was used to calculate the percentage of superoxide scavenging.

[2] = Hydrogen peroxide scavenging assay (Amplex Red); assay type: biochemical; settings: in vitro, concentrations up to 100 μM, 5 μM exogenous hydrogen peroxide
Description: as §1, §2
Hydrogen peroxide was measured in vitro, using an Amplex Red™ assay kit (Invitrogen), according to the manufacturer's instructions. This assay measures the oxidation of Amplex Red™ (10-acetyl-3,7-dihydroxyphenoxazine) to fluorescent resorufin in the presence of horseradish peroxidase. Briefly, H2O2 ([…]) was added to various concentrations (1-100 μM) of the compounds under study in reaction buffer. After an incubation of 5 min, Amplex Red™ was added to measure remaining H2O2. Reactions were incubated for 30 min at room temperature, protected from light. Resorufin fluorescence was measured in a microplate reader (Biotek) using excitation at 530 nm and emission at 590 nm.

Nox4-dependent signaling = experiment: TGF-β-induced α-SMA upregulation in human aortic smooth muscle cells (Western blot); assay type: cell-based; settings: HASMCs pretreated 30 min, TGF-β 24 h, Western blot normalized to β-tubulin
Description: Human aortic smooth muscle cells in culture were incubated with indicated concentrations of compound 23, 24, or 25 and stimulated with 2 ng/ml TGF-β for 24 h to induce a Nox4-dependent upregulation of smooth muscle alpha-actin (α-SMA). Protein expression was measured by Western blotting and normalized to β-tubulin. In the absence of inhibitor, α-SMA induction by TGF-β was maximal (100%).
Cells were pretreated with a candidate inhibitor 30 min before exposure to TGF-β and harvested after 24 h. Actin expression was measured by western blotting with a specific antibody.

Nox4 mRNA = Nox4 mRNA qPCR assay in TGF-β-stimulated cells; assay type: cell-based, human; settings: preincubation, same range of concentrations as FIG. 11, TGF-β stimulated
[3] = test system: human aortic smooth muscle cells; experiment: Mammalian cell live/dead viability assay; assay type: cell-based; settings: TGF-β stimulated, n=6
Description: To rule out a possible toxic effect of these compounds in cultured cells, cell viability was measured using a commercial mammalian cell live/dead assay. Stimulation with TGF-β alone had no effect on cell viability (99±0.61%, P=NS, n=4).

hippocampal brain slices = hippocampal brain slices treated with Nox 4 inhibitors; cited from earlier work

Structure (SMILES)	effect on superoxide (ROS scavenging) [1]	effect on hydrogen peroxide (ROS scavenging) [2]	inhibition of Nox4-dependent signaling (α-SMA expression) (Nox4-dependent signaling)	effect on Nox4 expression (Nox4 mRNA) (Nox4 mRNA)	cell viability ([3]; 100 μM preincubation) [%]	cell viability ([3]; 10 μM preincubation) [%]	cell death (hippocampal brain slices)
COc1ccc(S(=O)(=O)N2CCCN(c3ccc(C(F)(F)F)cc3)C2=O)cc1 [Compound 23, 1-((4-Methoxyphenyl)sulfonyl)-3-(4-(trifluoromethyl)phenyl)-tetrahydropyrimidin-2(1H)-one]	no effect	no effect	profoundly inhibiting	did not affect	92±3.09	–	–
O=C1N(c2ccc(C(F)(F)F)cc2)CCCN1S(=O)(=O)c1ccc(F)cc1 [Compound 24, 1-((4-Fluorophenyl)sulfonyl)-3-(4-(trifluoromethyl)phenyl)-tetrahydropyrimidin-2(1H)-one]	no effect	no effect	profoundly inhibiting	did not affect	100±0.97	–	–
COc1ccc(S(=O)(=O)N2CCN(c3ccc(C(F)(F)F)cc3)C2=O)cc1 [Compound 25, 1-((4-Methoxyphenyl)sulfonyl)-3-(4-(trifluoromethyl)phenyl)-imidazolidin-2-one]	no effect	no effect	profoundly inhibiting	did not affect	–	97±2.50	–
Cc1c2c(=O)n(-c3ccccc3Cl)[nH]c2cc(=O)n1Cc1ccccn1 [GKT136901]	–	–	–	–	–	–	significantly reduced
